Measured values taken from the NIST ThermoML archive (doi:10.1021/je200421s).

Experiments:
[1] = refractive index (Na D-line) (dimensionless); mn = molality of the nth substance listed, in mol/kg; conditions: 298.15 K, 101 kPa, Liquid, Standard Abbe refractometry
[2] = mn = molality of the nth substance listed, in mol/kg; conditions: 101 kPa, Liquid, Vibrating tube method

O [water] + CC(=O)NCCCCCCNC(C)=O
Conditions | refractive index
[1], m2 = 0 | 1.332

O=C[C@H](O)[C@@H](O)[C@H](O)[C@H](O)CO [D-glucose] + O
mass density [kg/m3], [2]
Conditions | m1 = 0.05 | m1 = 0.1 | m1 = 0.2 | m1 = 0.3 | m1 = 0.5 | m1 = 0.8
288.15 K | 1002.58 | 1006 | 1012.64 | 1019.21 | 1031.87 | 1050.04
293.15 K | 1001.65 | 1005.04 | 1011.63 | 1018.15 | 1030.73 | 1048.76
298.15 K | 1000.46 | 1003.84 | 1010.38 | 1016.85 | 1029.34 | 1047.27
303.15 K | 999.043 | 1002.39 | – | 1015.33 | 1027.75 | 1045.58
308.15 K | – | 1000.75 | – | 1013.63 | 1025.96 | 1043.7

[1]
Conditions | refractive index
m1 = 0.05 | 1.3331
m1 = 0.1 | 1.3343
m1 = 0.2 | 1.3368
m1 = 0.3 | 1.3392
m1 = 0.5 | 1.3443
m1 = 0.8 | 1.351

OC[C@H]1O[C@@](CO)(O[C@H]2O[C@H](CO)[C@@H](O)[C@H](O)[C@H]2O)[C@@H](O)[C@@H]1O [D-sucrose] + O
mass density [kg/m3], [2]
Conditions | m1 = 0.05 | m1 = 0.1 | m1 = 0.2 | m1 = 0.3 | m1 = 0.5 | m1 = 0.8
288.15 K | 1005.67 | 1012.18 | 1024.44 | 1036.52 | 1059.36 | 1089.54
293.15 K | 1004.73 | 1011.2 | 1023.38 | 1035.39 | 1058.1 | 1088.1
298.15 K | 1003.53 | 1009.97 | 1022.08 | 1034.03 | 1056.62 | 1086.46
303.15 K | 1002.11 | 1008.5 | 1020.57 | 1032.45 | 1054.93 | 1084.64
308.15 K | 1000.46 | 1006.83 | 1018.84 | 1030.68 | 1053.07 | 1082.65

[1]
Conditions | refractive index
m1 = 0.05 | 1.3343
m1 = 0.1 | 1.3368
m1 = 0.2 | 1.3415
m1 = 0.3 | 1.3458
m1 = 0.5 | 1.3542
m1 = 0.8 | 1.3656

CC(=O)NCCCCCCNC(C)=O [N,N'-diacetyl-1,6-hexanediamine] + O
mass density [kg/m3], [2]
Conditions | m1 = 0.0999 | m1 = 0.1498 | m1 = 0.1998 | m1 = 0.25 | m1 = 0.3001 | m1 = 0.3503 | m1 = 0.3984
288.15 K | 1000.16 | 1000.68 | 1001.23 | 1001.78 | 1002.34 | 1002.88 | 1003.42
293.15 K | 999.201 | 999.691 | 1000.2 | 1000.72 | 1001.25 | 1001.75 | 1002.26
298.15 K | 997.982 | 998.441 | 998.923 | 999.415 | 999.908 | 1000.38 | 1000.87
303.15 K | 996.53 | 996.965 | 997.419 | 997.884 | 998.347 | 998.795 | 999.248
308.15 K | 994.869 | 995.284 | 995.708 | 996.146 | 996.58 | 997.002 | 997.432

[1]
Conditions | refractive index
m1 = 0.0999 | 1.335
m1 = 0.1498 | 1.3365
m1 = 0.1998 | 1.338
m1 = 0.25 | 1.3396
m1 = 0.3001 | 1.3409
m1 = 0.3503 | 1.342
m1 = 0.3984 | 1.3433
